Test results as given in patent US12077503B2, “Substituted cyclic amides and their use as herbicides” (FMC CORPORATION, priority 2015, dated 2024).

Experiments:
Type in all cases: in vivo
Kochia (Kochia scoparia) [1] = experiment: Test A preemergence
Summary of the method: (§1)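 Visual injury scores from 0, no effect, to 100, complete control, were assigned versus untreated controls roughly 10 d after treatment in the greenhouse. Test chemicals, formulated with surfactant in a non-phytotoxic solvent, were applied to planted seeds as a preemergence soil spray or postemergence to one- to two-leaf plants 2 to 10 cm tall, in loam–sand soil.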

[2] = tested on: barnyardgrass (Echinochloa crus-galli); experiment: Test A preemergence
Summary of the method: as §1

[3] = tested on: giant foxtail (Setaria faberii); experiment: Test A preemergence
Summary of the method: as §1

[4] = tested on: pigweed (Amaranthus retroflexus); experiment: Test A preemergence
[5] = tested on: ragweed (common ragweed, Ambrosia elatior); experiment: Test A preemergence
Summary of the method: as §1

[6] = tested on: ryegrass, Italian (Italian ryegrass, Lolium multiflorum); experiment: Test A preemergence
Summary of the method: as §1

[7] = tested on: Galium (catchweed bedstraw, Galium aparine); experiment: Test A postemergence; details: postemergence, 0 to 100 scale (0 no effect, 100 complete control)
Summary of the method: as §1

Kochia (Kochia scoparia) [8] = experiment: Test A postemergence; details: postemergence, 0 to 100 scale (0 no effect, 100 complete control)
Summary of the method: as §1

[9] = tested on: barnyardgrass (Echinochloa crus-galli); experiment: Test A postemergence; details: postemergence, 0 to 100 scale (0 no effect, 100 complete control)
Summary of the method: as §1

[10] = tested on: blackgrass (Alopecurus myosuroides); experiment: Test A postemergence; details: postemergence, 0 to 100 scale (0 no effect, 100 complete control)
Summary of the method: as §1

corn (Zea mays) = experiment: Test A postemergence; details: postemergence, 0 to 100 scale (0 no effect, 100 complete control)
Summary of the method: as §1

[11] = tested on: giant foxtail (Setaria faberii); experiment: Test A postemergence; details: postemergence, 0 to 100 scale (0 no effect, 100 complete control)
Summary of the method: as §1

[12] = tested on: pigweed (Amaranthus retroflexus); experiment: Test A postemergence; details: postemergence, 0 to 100 scale (0 no effect, 100 complete control)
Summary of the method: as §1

[13] = tested on: ragweed (common ragweed, Ambrosia elatior); experiment: Test A postemergence; details: postemergence, 0 to 100 scale (0 no effect, 100 complete control)
Summary of the method: as §1

[14] = tested on: ryegrass, Italian (Italian ryegrass, Lolium multiflorum); experiment: Test A postemergence; details: postemergence, 0 to 100 scale (0 no effect, 100 complete control)
Summary of the method: as §1

[15] = tested on: wheat (Triticum aestivum); experiment: Test A postemergence; details: postemergence, 0 to 100 scale (0 no effect, 100 complete control)
Summary of the method: as §1

[16] = tested on: barnyardgrass (Echinochloa crus-galli); experiment: Test B flooded paddy test; details: Flood, 0 to 100 scale where 0 is no effect and 100 is complete control, 13 to 15 d
Summary of the method: (§2)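 Response scored visually against untreated controls, 0 = no effect and 100 = complete control, 13–15 d after treatment in the greenhouse. Compounds added to paddy water held 3 cm above soil surface. Treatment given at 2-leaf stage.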

[17] = tested on: ducksalad (Heteranthera limosa); experiment: Test B flooded paddy test; details: Flood, 0 to 100 scale where 0 is no effect and 100 is complete control, 13 to 15 d
Summary of the method: as §2

rice (Oryra sativa) = experiment: Test B flooded paddy test; details: Flood, 0 to 100 scale where 0 is no effect and 100 is complete control, 13 to 15 d
Summary of the method: as §2

[18] = tested on: sedge, umbrella (small-flower umbrella sedge, Cyperus difformis); experiment: Test B flooded paddy test; details: Flood, 0 to 100 scale where 0 is no effect and 100 is complete control, 13 to 15 d
Summary of the method: as §2

[19] = 125 g ai/ha, Preemergence, visual injury after approximately 10 d, 0 to 100 scale where 0 is no effect and 100 is complete control
[20] = 500 g ai/ha, preemergence, 0 to 100 scale, 0 = no effect, 100 = complete control
[21] = 125 g ai/ha, visual rating after approx. 10 d
[22] = 500 g ai/ha, visual injury, approx. 10 d

Compound	Plant response rating, Kochia (Kochia (Kochia scoparia) [1]; [19])	Plant response rating, Kochia (Kochia (Kochia scoparia) [1]; [20])	Plant response rating, Barnyardgrass [2, 19]	Plant response rating, Barnyardgrass [2, 20]	Plant response rating, Foxtail, Giant [3, 19]	Plant response rating, Foxtail, Giant [3, 20]	Plant response rating, Pigweed [4, 19]	Plant response rating, Pigweed [4, 20]	Plant response rating, Ragweed [5, 19]	Plant response rating, Ragweed [5, 20]	Plant response rating, Ryegrass, Italian [6, 19]	Plant response rating, Ryegrass, Italian [6, 20]	Plant response rating, Galium [7, 21]	Plant response rating, Galium [7, 22]	Plant response rating, Kochia (Kochia (Kochia scoparia) [8]; [21])	Plant response rating, Kochia (Kochia (Kochia scoparia) [8]; [22])	Plant response rating, Barnyardgrass [9, 21]	Plant response rating, Barnyardgrass [9, 22]	Plant response rating, Blackgrass [10, 21]	Plant response rating, Blackgrass [10, 22]	also measured
Cc1ccc(C2CNC(=O)C2C(=O)Nc2ccccc2F)cc1C(F)(F)F (racemic) [Compound 654]	0	40	90	90	90	90	40	70	0	30	40	80	40	60	20	50	90	90	30	50	Plant response rating, Corn (corn (Zea mays); [21]): 20; Plant response rating, Corn (corn (Zea mays); [22]): 70; Plant response rating, Foxtail, Giant [11, 21]: 70; Plant response rating, Foxtail, Giant [11, 22]: 90; Plant response rating, Pigweed [12, 21]: 0; Plant response rating, Pigweed [12, 22]: 20; Plant response rating, Ragweed [13, 21]: 0; Plant response rating, Ragweed [13, 22]: 20; Plant response rating, Ryegrass, Italian [14, 21]: 30; Plant response rating, Ryegrass, Italian [14, 22]: 60; Plant response rating, Wheat [15, 21]: 0; Plant response rating, Wheat [15, 22]: 40; Plant response rating, Barnyardgrass ([16]; 250 g ai/ha): 35; Plant response rating, Ducksalad ([17]; 250 g ai/ha): 90; Plant response rating, Rice (rice (Oryra sativa); 250 g ai/ha): 0; Plant response rating, Sedge, Umbrella ([18]; 250 g ai/ha): 0
Cc1ccc(C2CNC(=O)C2C(=O)Nc2ccc(F)cc2F)cc1C(F)(F)F (racemic) [Compound 655]	30	40	90	90	90	90	50	60	0	30	40	60	30	50	30	40	70	90	20	30	Plant response rating, Corn (corn (Zea mays); [21]): 0; Plant response rating, Corn (corn (Zea mays); [22]): 30; Plant response rating, Foxtail, Giant [11, 21]: 40; Plant response rating, Foxtail, Giant [11, 22]: 60; Plant response rating, Pigweed [12, 21]: 0; Plant response rating, Pigweed [12, 22]: 0; Plant response rating, Ragweed [13, 21]: 0; Plant response rating, Ragweed [13, 22]: 0; Plant response rating, Ryegrass, Italian [14, 21]: 0; Plant response rating, Ryegrass, Italian [14, 22]: 30; Plant response rating, Wheat [15, 21]: 0; Plant response rating, Wheat [15, 22]: 10; Plant response rating, Barnyardgrass ([16]; 250 g ai/ha): 20; Plant response rating, Ducksalad ([17]; 250 g ai/ha): 100; Plant response rating, Rice (rice (Oryra sativa); 250 g ai/ha): 30; Plant response rating, Sedge, Umbrella ([18]; 250 g ai/ha): 0
O=C1NCC(c2cccc(C(F)(F)F)c2)C1C(=O)Nc1ccc(Cl)cc1F (racemic) [Compound 675]	0	0	70	80	70	90	0	0	0	0	0	20	0	0	0	0	40	70	0	20	Plant response rating, Corn (corn (Zea mays); [21]): 0; Plant response rating, Corn (corn (Zea mays); [22]): 0; Plant response rating, Foxtail, Giant [11, 21]: 50; Plant response rating, Foxtail, Giant [11, 22]: 80; Plant response rating, Pigweed [12, 21]: 0; Plant response rating, Pigweed [12, 22]: 0; Plant response rating, Ragweed [13, 21]: 0; Plant response rating, Ragweed [13, 22]: 0; Plant response rating, Ryegrass, Italian [14, 21]: 0; Plant response rating, Ryegrass, Italian [14, 22]: 0; Plant response rating, Wheat [15, 21]: 0; Plant response rating, Wheat [15, 22]: 0; Plant response rating, Barnyardgrass ([16]; 500 g ai/ha): 60; Plant response rating, Ducksalad ([17]; 500 g ai/ha): 75; Plant response rating, Rice (rice (Oryra sativa); 500 g ai/ha): 15; Plant response rating, Sedge, Umbrella ([18]; 500 g ai/ha): 0
C#Cc1cccc(C2CNC(=O)C2C(=O)Nc2cccc(F)c2F)c1 (racemic) [Compound 677]	20	40	60	90	40	90	0	0	0	0	20	40	0	40	0	40	80	90	0	20	Plant response rating, Corn (corn (Zea mays); [21]): 0; Plant response rating, Corn (corn (Zea mays); [22]): 40; Plant response rating, Foxtail, Giant [11, 21]: 20; Plant response rating, Foxtail, Giant [11, 22]: 70; Plant response rating, Pigweed [12, 21]: 0; Plant response rating, Pigweed [12, 22]: 20; Plant response rating, Ragweed [13, 21]: 0; Plant response rating, Ragweed [13, 22]: 30; Plant response rating, Ryegrass, Italian [14, 21]: 0; Plant response rating, Ryegrass, Italian [14, 22]: 30; Plant response rating, Wheat [15, 21]: 0; Plant response rating, Wheat [15, 22]: 20; Plant response rating, Barnyardgrass ([16]; 250 g ai/ha): 30; Plant response rating, Ducksalad ([17]; 250 g ai/ha): 100; Plant response rating, Rice (rice (Oryra sativa); 250 g ai/ha): 0; Plant response rating, Sedge, Umbrella ([18]; 250 g ai/ha): 0
Cc1ccc(C2CNC(=O)C2C(=O)Nc2ccc(F)cc2F)cc1C(F)(F)F (racemic) [Compound 680]	0	20	30	90	60	90	0	0	0	0	0	20	0	20	0	0	30	60	20	20	Plant response rating, Corn (corn (Zea mays); [21]): 20; Plant response rating, Corn (corn (Zea mays); [22]): 20; Plant response rating, Foxtail, Giant [11, 21]: 0; Plant response rating, Foxtail, Giant [11, 22]: 30; Plant response rating, Pigweed [12, 21]: 0; Plant response rating, Pigweed [12, 22]: 0; Plant response rating, Ragweed [13, 21]: 0; Plant response rating, Ragweed [13, 22]: 0; Plant response rating, Ryegrass, Italian [14, 21]: 0; Plant response rating, Ryegrass, Italian [14, 22]: 0; Plant response rating, Wheat [15, 21]: 0; Plant response rating, Wheat [15, 22]: 0; Plant response rating, Barnyardgrass ([16]; 250 g ai/ha): 20; Plant response rating, Ducksalad ([17]; 250 g ai/ha): 30; Plant response rating, Rice (rice (Oryra sativa); 250 g ai/ha): 15; Plant response rating, Sedge, Umbrella ([18]; 250 g ai/ha): 0
